Publication PMC11455950, “Effects of SZV-2649, a new multiple ion channel inhibitor mexiletine analogue” (Scientific Reports, 2024)
“And” between values parts separate entries of the source, which are not always exact repeats. Equal entries are not always repeated.

Columns and labels:
anesthetized dogs = experiment: Atrial fibrillation induced by carbachol infusion and burst stimulation in anesthetized dogs; format: in vivo, dog; design: key to AF converted to SR? / AF reinduced?: N, response not observed; Y, response observed
Method: The effect of SZV-2649 was further investigated in carbachol-infused and programmed electrical stimulation-induced (i.e. 800/min atrial burst stimulation) acute atrial fibillation model in anesthetized dogs.
In the atrial fibrillation experiments, at least 5–6 dogs for control and test groups, (respectively) were used. Following 0.5 µg/kg sufentanyl premedication and […] i.v. pentobarbital anaesthesia induction, left thoracotomy was performed on all animals. Dogs were endotracheally intubated and mechanically ventilated (UGO Basile respirator; Biological Research Apparatus, Italy) Physiological parameters (non-invasive blood pressure, SpO2, ECG) were continuously monitored during surgery and experiments (InnoCare-VET Patient Care Monitor; Budapest, Hungary). The ECGs were recorded using precordial leads and were digitized and stored on a computer for off-line analysis using National Instruments data acquisition hardware (National Instruments, Austin, Texas, USA) and SPEL Advanced Haemosys software (version 3.2, MDE Heidelberg GmbH, Germany). Under pentobarbital anaesthesia, two pacemaker electrodes (Biotronik Solia S 60; Biotronik Ltd., Hungary) were positioned epicardially into the left atrial appendage and apex of the left ventricle, respectively, and electrodes were connected to pacemakers (Effecta D; Biotronik Hungary Ltd., Hungary). Pacemakers were programmed in VVI mode using Biotronik IC: 4808 A-Renamic programmer to prevent the potentially bradycardic effect of carbachol leading to hemodynamic instability. Atrial and ventricular thresholds were measured before AF induction in all animals. Ventricular and atrial pacing were set to three times the measured threshold. AF inducibility were tested in both groups using a control set (25 times) of 10-second-long rapid atrial bursts (800 beats/min, at threefold threshold). Following 25 atrial burst stimuli, 2 × 2 µg/kg loading dose of intravenous carbachol was administered followed by an 8 µg/kg/h maintenance dose. Atrial fibrillation was induced using 10-second-long atrial burst stimuli in the presence of carbachol in both groups of dogs. […] In these experiments, we investigated whether AF was converted to SR by the test drug(s). All intravenous infusions were performed using a programmable infusion pump (Terufusion TE-3; Terumo Europe, Leuven, Belgium).

[1] = system: dog Purkinje fiber preparations; experiment: Conventional microelectrode action potential recording, dog Purkinje fibers; settings: CL = 500 ms, n = 10
Method: The effects of SZV-2649 on action potentials were studied in dog ventricular, atrial and Purkinje fiber preparations.
Action potentials were recorded in cardiac ventricular trabeculae and papillary muscle preparations obtained from the right ventricles of Beagle dogs (10–15 kg) of either sex using the conventional microelectrode technique. Dogs were sacrificed by iv. sedation with xylazine (1 mg/kg), followed by i.v. administration of 50 mg/kg pentobarbital. After the cornea reflex disapeared the chest was opened, and the heart was rapidly removed. The heart was immediately rinsed in oxygenated modified Locke’s solution containing (in mM): NaCl 128.3, KCl 4, CaCl2 1.8, MgCl2 0.42, NaHCO3 21.4, and glucose 10. The pH of this solution was set between 7.35 and 7.4 when gassed with the mixture of 95% O2 and 5% CO2 at 37 °C.
Isolated papillary muscle or atrial trabecula and Purkinje fiber preparations were obtained and prepared from the right ventricle and were individually mounted in a tissue chamber with the volume of 50 ml. Each preparation was initially stimulated through a pair of platinum electrodes in contact with the preparation using rectangular current pulses of 2 ms duration. These stimuli were delivered at a constant cycle length of 1000 ms for at least 60 min allowing the preparation to equilibrate before the measurements were initiated. Transmembrane potentials were recorded using conventional glass microelectrodes, filled with 3 M KCl and having tip resistances of 5–20 MΩ, connected to the input of a high impedance electrometer (Experimetria, type 309, Budapest, Hungary) which was coupled to a dual beam oscilloscope. […] Attempts were made to maintain the same impalement throughout each experiment. In case an impalement became dislodged, adjustment was attempted, and if the action potential characteristics of the re-established impalement deviated by less than 5% from the previous measurement, the experiment continued[64]–[67]. All measurements were carried out at 37 °C.

[2] = system: rapid delayed rectifier potassium current (IKr); experiment: Whole-cell patch-clamp, rapid delayed rectifier potassium current in dog ventricular myocytes; format: cell-based; settings: Canis lupus familiaris, Ventricular myocyte, tail current, dog left ventricular myocytes
Method: The effects of SZV-2649 on transmemrane ionic currents were investigated in dog cardiac myocytes after a 5-minute superfusion of the drug.
The rapid delayed rectifier potassium current (IKr) was elicited from the holding potential of -80 mV following a prepulse to -40 mV. IKr tail current was measured at a post pulse to -40 mV after 1 s long test pulses from − 30 mV to 50 mV using 10 mV increments at the pulsing cycle length of 20 s (see inset of Fig. 4A). The effect of SZV-2649 was investigated at 1 and 5 µM concentrations.
Ventricular myocytes from Beagle dogs were enzymatically dissociated as described in detail previously. […]
The membrane currents were recorded with Axopatch-200B amplifiers (Molecular Devices, Sunnyvale, CA, USA) by means of the whole-cell configuration of the patch-clamp technique. […]
The inward rectifier (IK1), the transient outward (Ito), the rapid (IKr) and the slow (IKs) delayed rectifier potassium currents were recorded in HEPES-buffered Tyrode’s solution. […] When IKr was recorded, IKs was inhibited by using the selective IKs blocker HMR-1556 (0.5 µM). […]

[3] = i.v. 10 mg/kg, individual dogs, carbachol + burst, 10 mg/kg

CC(N)COc1c(I)cc(C#N)cc1I.Cl (centres unmarked) [SZV-2649, 4-(2-aminopropoxy)-3,5-diiodobenzonitrile hydrochloride]
AF converted to SR? (anesthetized dogs; i.v. 10 mg/kg, individual dogs, carbachol + burst): Y
AF converted to SR? (time printed in cell) (anesthetized dogs; [3]): 79 s and 175 s and 64 s and 286 s and 84 s and 194 s
AF reinduced (number of the 25 burst stimuli) (anesthetized dogs; [3]): 0/25 and 1/25 and 2/25
AF reinduced? (anesthetized dogs; [3]): N and Y (2×)
Atrial fibrillation reinduced, share of burst stimuli (anesthetized dogs; i.v. 10 mg/kg, whole group): 2%
Times atrial fibrillation was reinduced by the 25 burst stimuli delivered in each animal (anesthetized dogs; i.v. 10 mg/kg, whole group): 3 times
Experimental animals in which atrial fibrillation was converted to sinus rhythm (anesthetized dogs; intravenous bolus 10 mg/kg): 100%
APA ([1]; 5 µM): 123.8 ± 2.3 mV
APD50 ([1]; 5 µM): 113.6 ± 5.6 ms
APD90 ([1]; 5 µM): 217.4 ± 5.1 ms
RP ([1]; 5 µM): −84.7 ± 1.7 mV
Vmax ([1]; 5 µM): 507.4 ± 53.4 V/s
APA ([1]; 10 µM): 119.2 ± 3.3 mV
APD50 ([1]; 10 µM): 112.4 ± 7.9 ms
APD90 ([1]; 10 µM): 223.4 ± 5.6 ms
RP ([1]; 10 µM): −86.0 ± 1.1 mV
Vmax ([1]; 10 µM): 415.0 ± 28.9 V/s
Vmax ([1]; […]): 581.1 ± 39.0 V/s
inhibition at 1 µM ([2]; 1 µM): ~23%
inhibition at 5 µM ([2]; 5 µM): ~75%
